Test results: patent publication US20250230193A1, “CYCLIC COMPOUND HAVING SELECTIVE KRAS INHIBITORY EFFECT ON HRAS AND NRAS” (CHUGAI SEIYAKU KABUSHIKI KAISHA, priority 2022, published 2025)

Legend:
[1] = molecular target: GDP-bound NRAS wild-type protein (Homo sapiens, UniProt P01111); assay: Binding to NRAS by surface plasmon resonance (SPR), Single Cycle Kinetics; details: KD ratio NRAS/KRAS
[2] = molecular target: GDP-bound HRAS wild-type protein (Homo sapiens, UniProt P01112); assay: Binding to HRAS by surface plasmon resonance (SPR), Single Cycle Kinetics; details: KD ratio HRAS/KRAS
GDP-bound HRAS wild-type protein, sequence (P01112 whole entry): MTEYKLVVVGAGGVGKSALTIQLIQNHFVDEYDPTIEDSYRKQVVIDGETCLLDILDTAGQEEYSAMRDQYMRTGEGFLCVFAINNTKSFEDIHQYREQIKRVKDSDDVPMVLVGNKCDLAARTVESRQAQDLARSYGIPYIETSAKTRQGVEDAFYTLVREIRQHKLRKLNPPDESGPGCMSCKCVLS

[3] = SPR, GDP-bound wild-type proteins

GDP-bound NRAS wild-type protein, sequence (P01111 whole entry): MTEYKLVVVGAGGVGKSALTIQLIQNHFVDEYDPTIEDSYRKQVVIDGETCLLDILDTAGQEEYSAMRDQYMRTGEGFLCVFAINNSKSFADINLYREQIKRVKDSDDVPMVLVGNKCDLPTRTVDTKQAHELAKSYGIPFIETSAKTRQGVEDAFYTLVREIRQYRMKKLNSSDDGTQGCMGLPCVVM

| SMILES | NRAS/KRAS (ratio of KD value with respect to GDP-bound NRAS wild-type protein to KD value with respect to KRAS) ([1]; class symbols) | HRAS/KRAS (ratio of KD value with respect to GDP-bound HRAS wild-type protein to KD value with respect to KRAS) ([2]; class symbols) | NRAS/KRAS (ratio of KD value with respect to GDP-bound NRAS wild-type protein to KD value with respect to KRAS) [1, 3] | HRAS/KRAS (ratio of KD value with respect to GDP-bound HRAS wild-type protein to KD value with respect to KRAS) [2, 3] |
| --- | --- | --- | --- | --- |
| CCC(CC)[C@H]1C(=O)N(C)[C@H](C(=O)N(C)C)CC(=O)N(C)[C@@H](COC)C(=O)N[C@@H]([C@@H](C)CC)C(=O)N(C)CC(=O)N(C)[C@H]2C/C=C\CCN(C2=O)[C@@H](Cc2ccc(C(F)(F)F)cc2)C(=O)N(C)CC(=O)N[C@@H](CCc2ccc(C(F)(F)F)c(Cl)c2)C(=O)N2CC3(CC3)C[C@H]2C(=O)NC2(CC(C)(C)C2)C(=O)N1C [PP2965] | AA (a compound having 20 or more is denoted as AA) | A (a compound having 10 or more and less than 20 is denoted as A) | – | – |
| CCC(CC)[C@H]1C(=O)N(C)[C@H](C(=O)N(C)C)CC(=O)N(C)[C@@H](COC)C(=O)N[C@@H]([C@@H](C)CC)C(=O)N(C)CC(=O)N(C)[C@H]2C/C=C\CCN(C2=O)[C@@H](Cc2ccc(C)cc2)C(=O)N(C)CC(=O)N[C@@H](CCc2ccc(C(F)(F)F)c(Cl)c2)C(=O)N2CCCCC[C@H]2C(=O)NC2(CC(C)(C)C2)C(=O)N1C [PP2966] | A (a compound having 10 or more and less than 20 is denoted as A) | A (a compound having 10 or more and less than 20 is denoted as A) | – | – |
| CCC(CC)[C@H]1C(=O)N(C)[C@H](C(=O)N(C)C)CC(=O)N(C)[C@@H](COC)C(=O)N[C@@H]([C@@H](C)CC)C(=O)N(C)CC(=O)N(C)[C@H]2C/C=C\CCN(C2=O)[C@@H](Cc2ccc(C)cc2)C(=O)N(C)CC(=O)N[C@@H](CCc2ccc(C(F)(F)F)c(Cl)c2)C(=O)N2CC3(CC3)C[C@H]2C(=O)NC2(CC(C)(C)C2)C(=O)N1C [PP2967] | AA (a compound having 20 or more is denoted as AA) | A (a compound having 10 or more and less than 20 is denoted as A) | – | – |
| CCC[C@H]1C(=O)N[C@@H]([C@@H](C)CC)C(=O)N(C)CC(=O)N(C)[C@H]2C/C=C\CCN(C2=O)[C@@H](Cc2ccc(C(F)(F)F)cc2)C(=O)N(C)CC(=O)N[C@@H](CCc2ccc(C(F)(F)F)c(OC)c2)C(=O)N2CCCCC[C@H]2C(=O)NC2(CC(C)(C)C2)C(=O)N(C)[C@@H](C(CC)CC)C(=O)N(C)[C@H](C(=O)N(C)C)CC(=O)N1C [PP2968] | AA (a compound having 20 or more is denoted as AA) | A (a compound having 10 or more and less than 20 is denoted as A) | – | – |
| CCC[C@H]1C(=O)N[C@@H]([C@@H](C)CC)C(=O)N(C)CC(=O)N(C)[C@H]2C/C=C\CCN(C2=O)[C@@H](Cc2ccc(C(F)(F)F)cc2)C(=O)N(C)CC(=O)N[C@@H](CCc2ccc(C(F)(F)F)c(Cl)c2)C(=O)N2C[C@H](OCC)C[C@H]2C(=O)NC2(CC(C)(C)C2)C(=O)N(C)[C@@H](CC(C)(C)C)C(=O)N(C)[C@H](C(=O)N(C)C)CC(=O)N1C [PP2969] | AA (a compound having 20 or more is denoted as AA) | A (a compound having 10 or more and less than 20 is denoted as A) | – | – |
| CCC(CC)[C@H]1C(=O)N(C)[C@H](C(=O)N(C)C)CC(=O)N(C)[C@@H](COC)C(=O)N[C@@H]([C@@H](C)CC)C(=O)N(C)CC(=O)N(C)[C@H]2C/C=C\CCN(C2=O)[C@@H](Cc2ccc(C)cc2)C(=O)N(C)CC(=O)N[C@@H](CCc2ccc(C(F)(F)F)c(OC)c2)C(=O)N2CCCCC[C@H]2C(=O)NC2(CC(C)(C)C2)C(=O)N1C [PP2970] | A (a compound having 10 or more and less than 20 is denoted as A) | A (a compound having 10 or more and less than 20 is denoted as A) | – | – |
| CCC[C@H]1C(=O)N[C@@H](C2CCCC2)C(=O)N(C)CC(=O)N(C)[C@H]2C/C=C\CCN(C2=O)[C@@H](Cc2ccc(C(F)(F)F)cc2)C(=O)N(C)CC(=O)N[C@@H](CCc2ccc(C(F)(F)F)c(Cl)c2)C(=O)N2C[C@H](OCC)C[C@H]2C(=O)NC2(CC(C)(C)C2)C(=O)N(C)[C@@H](CC(C)(C)C)C(=O)N(C)[C@H](C(=O)N(C)C)CC(=O)N1C [PP2971] | – | – | A (a compound having 10 or more and less than 20 is denoted as A) | A (a compound having 10 or more and less than 20 is denoted as A) |
| CCC[C@H]1C(=O)N[C@@H]([C@@H](C)CC)C(=O)N(C)CC(=O)N(C)[C@H]2C/C=C\CCN(C2=O)[C@@H](Cc2ccc(C(F)(F)F)cc2)C(=O)N(C)CC(=O)N[C@@H](CCc2ccc(C(F)(F)F)c(Cl)c2)C(=O)N2C[C@H](OCC)C[C@H]2C(=O)NC2(CC(C)(C)C2)C(=O)N(C)[C@@H]([C@@H](C)CC)C(=O)N(C)[C@H](C(=O)N(C)C)CC(=O)N1C [PP2973] | – | – | A (a compound having 10 or more and less than 20 is denoted as A) | A (a compound having 10 or more and less than 20 is denoted as A) |
| CCC(CC)[C@H]1C(=O)N(C)[C@H](C(=O)N(C)C)CC(=O)N(C)[C@@H](COC)C(=O)N[C@@H]([C@@H](C)CC)C(=O)N(C)CC(=O)N(C)[C@H]2C/C=C\CCN(C2=O)[C@@H](Cc2ccc(C)cc2)C(=O)N(C)CC(=O)N[C@@H](CCc2ccc(Cl)c(Cl)c2)C(=O)N2CCCCC[C@H]2C(=O)NC2(CC(C)(C)C2)C(=O)N1C [PP2974] | – | – | A (a compound having 10 or more and less than 20 is denoted as A) | A (a compound having 10 or more and less than 20 is denoted as A) |
| CCC[C@H]1C(=O)N[C@@H]([C@@H](C)CC)C(=O)N(C)CC(=O)N(C)[C@H]2C/C=C\CCN(C2=O)[C@@H](Cc2ccc(C(F)(F)F)cc2)C(=O)N(C)CC(=O)N[C@@H](CCc2ccc(C(F)(F)F)c(Cl)c2)C(=O)N2C[C@H](OCC)C[C@H]2C(=O)NC2(CC(C)(C)C2)C(=O)N(C)[C@@H](CC(F)(F)F)C(=O)N(C)[C@H](C(=O)N(C)C)CC(=O)N1C [PP2975] | – | – | A (a compound having 10 or more and less than 20 is denoted as A) | A (a compound having 10 or more and less than 20 is denoted as A) |
| CCC[C@H]1C(=O)N[C@@H]([C@@H](C)CC)C(=O)N(C)CC(=O)N(C)[C@H]2C/C=C\CCN(C2=O)[C@@H](Cc2ccc(C(F)(F)F)cc2)C(=O)N(C)CC(=O)N[C@@H](CCc2ccc(C(F)(F)F)c(Cl)c2)C(=O)N2C[C@H](OCC)C[C@H]2C(=O)NC2(CC(C)(C)C2)C(=O)N(C)[C@@H](CC(C)C)C(=O)N(C)[C@H](C(=O)N(C)C)CC(=O)N1C [PP2977] | – | – | A (a compound having 10 or more and less than 20 is denoted as A) | A (a compound having 10 or more and less than 20 is denoted as A) |
| C#CC[C@H]1C(=O)N[C@@H]([C@@H](C)CC)C(=O)N(C)CC(=O)N(C)[C@H]2C/C=C\CCN(C2=O)[C@@H](Cc2ccc(C)cc2)C(=O)N(C)CC(=O)N[C@@H](CCc2cc(F)c(C(F)(F)F)c(F)c2)C(=O)N2CC3(CC3)C[C@H]2C(=O)NC2(CC(C)(C)C2)C(=O)N(C)[C@@H](C2CCCC2)C(=O)N(C)[C@H](C(=O)N(C)C)CC(=O)N1C [PP2978] | – | – | A (a compound having 10 or more and less than 20 is denoted as A) | A (a compound having 10 or more and less than 20 is denoted as A) |
| CCC[C@H]1C(=O)N[C@@H]([C@@H](C)CC)C(=O)N(C)CC(=O)N(C)[C@H]2C/C=C\CCN(C2=O)[C@@H](Cc2ccc(C(F)(F)F)cc2)C(=O)N(C)CC(=O)N[C@@H](CCc2ccc(C(F)(F)F)c(Cl)c2)C(=O)N2CC3(CC3)C[C@H]2C(=O)NC2(CC(C)(C)C2)C(=O)N(C)[C@@H](CC(C)(C)C)C(=O)N(C)[C@H](C(=O)N(C)C)CC(=O)N1C [PP2979] | – | – | A (a compound having 10 or more and less than 20 is denoted as A) | B (a compound having 3 or more and less than 10 is denoted as B) |
| C#CC[C@H]1C(=O)N[C@@H]([C@@H](C)CC)C(=O)N(C)CC(=O)N(C)[C@H]2C/C=C\CCN(C2=O)[C@@H](Cc2ccc(C(F)(F)F)cc2)C(=O)N(C)CC(=O)N[C@@H](CCc2ccc(C(F)(F)F)c(Cl)c2)C(=O)N2CC3(CC3)C[C@H]2C(=O)NC2(CC(C)(C)C2)C(=O)N(C)[C@@H](C2CCCC2)C(=O)N(C)[C@H](C(=O)N(C)C)CC(=O)N1C [PP2980] | – | – | A (a compound having 10 or more and less than 20 is denoted as A) | B (a compound having 3 or more and less than 10 is denoted as B) |
| CCC[C@H]1C(=O)N[C@@H](C2CCCC2)C(=O)N(C)CC(=O)N(C)[C@H]2C/C=C\CCN(C2=O)[C@@H](Cc2ccc(C(F)(F)F)cc2)C(=O)N(C)CC(=O)N[C@@H](CCc2ccc(C(F)(F)F)c(Cl)c2)C(=O)N2CC3(CC3)C[C@H]2C(=O)NC2(CC(C)(C)C2)C(=O)N(C)[C@@H](CC(C)(C)C)C(=O)N(C)[C@H](C(=O)N(C)C)CC(=O)N1C [PP2981] | – | – | AA (a compound having 20 or more is denoted as AA) | A (a compound having 10 or more and less than 20 is denoted as A) |
